{"source": "paper PMC12704139", "about": "“(±)-Rutacycoumarins A and B: two pairs of unprecedented coumarin enantiomers from the aerial part of Ruta graveolens L. and chemically synthesized” (Pharmaceutical Biology, 2025)", "key": {"LPS-induced HepG2 cells [1]": {"test_system": "LPS-induced HepG2 cells", "assay": "IL-4, IL-10 and TNF-α in supernatant of LPS-induced HepG2 cells (ELISA)", "type": "cell-based, Homo sapiens", "conditions": "for LPS-induced inflammatory response (pro-inflammatory cytokines): HepG2, LPS", "description": "(§1) An LPS-induced hepatocyte injury model was established in HepG2 cells by treatment with 100 ng/mL LPS, using silymarin as a positive control. After treatment with test compounds at concentrations of 10, 20, and 40 μM, the cell culture supernatant was collected and centrifuged at 1000 × g for 15 min at 4 °C. The levels of alanine aminotransferase (ALT) and aspartate aminotransferase (AST) in the supernatant were quantified using commercial assay kits according to the manufacturer’s instructions. Absorbance was measured at 510 nm using a microplate reader, and results are expressed in units per liter (U/L). Additionally, the concentrations of interleukin-4 (IL-4), interleukin-10 (IL-10), and tumor necrosis factor-α (TNF-α) in the supernatant were determined by enzyme-linked immunosorbent assay (ELISA) using corresponding commercial kits. All procedures were performed in strict accordance with the manufacturer’s protocols. Cytokine levels are reported in picograms per milliliter (pg/mL), as calculated from the respective standard curves.\nThe cell culture supernatant was collected and separated by centrifugation at 4°C and 1000 rpm for 15 minutes. Levels of IL-4, IL-10, and TNF-α in the supernatant were determined using enzyme-linked immunosorbent assay (ELISA), strictly following the manufacturer’s protocols provided with the corresponding commercial ELISA kits. These values were quantified in picograms per milliliter (pg/mL) based on the standard curves generated."}, "recombinant human MAO-B": {"biological_target": "T1, recombinant human MAO-B (Homo sapiens, UniProt P27338)", "T1 construct": "purchased Active Motif 31503", "T1 sequence (P27338 1-520)": "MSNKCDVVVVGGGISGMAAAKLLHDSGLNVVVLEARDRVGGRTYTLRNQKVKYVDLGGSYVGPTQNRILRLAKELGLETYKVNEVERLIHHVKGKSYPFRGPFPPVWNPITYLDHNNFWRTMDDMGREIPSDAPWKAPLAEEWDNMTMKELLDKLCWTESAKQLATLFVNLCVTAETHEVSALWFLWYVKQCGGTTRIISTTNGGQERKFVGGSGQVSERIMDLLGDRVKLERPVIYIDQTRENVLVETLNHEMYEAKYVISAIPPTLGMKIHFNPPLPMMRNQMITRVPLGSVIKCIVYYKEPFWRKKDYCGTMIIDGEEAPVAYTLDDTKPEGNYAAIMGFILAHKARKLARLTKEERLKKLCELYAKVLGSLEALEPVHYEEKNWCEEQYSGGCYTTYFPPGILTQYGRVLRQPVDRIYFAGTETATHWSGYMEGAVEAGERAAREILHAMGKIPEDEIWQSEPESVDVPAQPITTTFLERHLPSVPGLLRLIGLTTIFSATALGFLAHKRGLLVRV", "assay": "Recombinant human MAO-B enzyme inhibition assay", "type": "biochemical", "quoted_text": "All compounds were tested with technical replicates. Compounds (100× final concentration) in 384-well source plates were dispensed (200 nL per well) into assay plates. Min/Max control wells received 200 µL of 100% DMSO. All wells except the Min controls were supplemented with 10 μL of 10 nM MAO-B (Min controls received buffer instead). Plates were centrifuged at 1000 × g for 1 min and incubated at 25 °C for 15 min. Then, 10 μL of 0.5 μM substrate was added to each well. After further centrifugation, the plates were protected from light and incubated for 60 min. The reaction was terminated by adding 20 μL of stop solution, followed by centrifugation and a 20-min equilibration period. Fluorescence was measured using an EnVision microplate reader. The inhibition percentage was calculated as follows: Inhibition (%) = [signal (max)− signal (sample)]/[signal (max) − signal (min)] × 100. Dose–response curves were generated by plotting the logarithm of compound concentration (X-axis) against the percentage inhibition (Y-axis). Curve fitting was performed in GraphPad Prism 8 using the ‘log(inhibitor) vs. response -Variable slope’ model to determine the IC50 values for MAO-B inhibition."}, "LPS-induced HepG2 cells [2]": {"test_system": "LPS-induced HepG2 cells", "assay": "ALT and AST in supernatant of LPS-induced HepG2 cells", "type": "cell-based, Homo sapiens", "conditions": "HepG2, 100 ng/mL LPS, compounds 10, 20, 40 μM; p < 0.01 vs. model", "description": "as §1\nSilymarin was used as a positive control. The supernatant of HepG2 cells was collected from different experimental groups and separated by centrifugation (4 °C, 1000 rpm, 15 minutes). The levels of ALT and AST in the supernatant were determined following the manufacturer's instructions provided with the commercial assay kits. The optical density (OD) values of each well were measured at a wavelength of 510 nm using a microplate reader. These values are expressed in units per liter (U/L) or millimoles per liter (mmol/L)."}, "human MAO-B (hMAO-B)": {"test_system": "human MAO-B (hMAO-B)", "parameters": "method as in Dhiman et al. [2018]", "conditions": "ref Dhiman et al. [2018], cited from earlier work"}, "hMAO": {"test_system": "hMAO", "parameters": "method as in Seong et al. [2019]", "conditions": "enzyme kinetic studies; ref Seong et al. [2019]; cited from earlier work"}, "hMAO-A": {"test_system": "hMAO-A", "parameters": "method as in Seong et al. [2019]", "conditions": "ref Seong et al. [2019], cited from earlier work; for isoform selectivity (in words): hMAO-A versus hMAO-B"}, "hMAO-B": {"test_system": "hMAO-B", "parameters": "method as in Seong et al. [2019]", "conditions": "ref Seong et al. [2019]; cited from earlier work"}, "MAO": {"test_system": "MAO", "parameters": "method as in Kozioł et al. [2020]", "conditions": "reference inhibitors at ∼3–5 μM; ref Kozioł et al. [2020]; cited from earlier work"}, "liver injury": {"test_system": "liver injury", "parameters": "method as in He et al. [2024]", "conditions": "suppressing TNF-α/JAK1/STAT3 signaling while enhancing IL-4/IL-10 production; ref He et al. [2024]; cited from earlier work"}, "MAO-A": {"test_system": "MAO-A", "parameters": "method as in Kozioł et al. [2020]", "conditions": "6.17 μM; ref Kozioł et al. [2020]; cited from earlier work"}, "human MAO-B": {"test_system": "human MAO-B", "parameters": "method as in Kozioł et al. [2020]", "conditions": "6.17 μM; ref Kozioł et al. [2020]; cited from earlier work"}, "[3]": {"conditions": "HepG2 supernatant, LPS, 10–40 μM, ELISA"}}, "data": [{"smiles": "CC1(C)CC1c1cc2ccc(O)cc2oc1=O", "note": "(racemic) [(±)-1, (±)-Rutacycoumarin A]", "values": [{"measurement": "LPS-induced inflammatory response (pro-inflammatory cytokines)", "setting": "LPS-induced HepG2 cells [1]", "value": "significant suppression"}, {"measurement": "MAO-B inhibition (in words)", "setting": "recombinant human MAO-B", "value": "potently inhibited"}, {"measurement": "LPS-elevated ALT level", "setting": "LPS-induced HepG2 cells [2]", "value": "significant suppression"}, {"measurement": "LPS-elevated AST level", "setting": "LPS-induced HepG2 cells [2]", "value": "significant suppression"}]}, {"smiles": "COc1cc2cc(C3CC3(C)C)c(=O)oc2cc1O", "note": "(racemic) [(±)-2, (±)-Rutacycoumarin B]", "values": [{"measurement": "LPS-induced inflammatory response (pro-inflammatory cytokines)", "setting": "LPS-induced HepG2 cells [1]", "value": "significant suppression"}, {"measurement": "IL-4 level", "setting": "LPS-induced HepG2 cells [1]; [3]", "value": "dose-dependently restored"}, {"measurement": "IL-10 level", "setting": "LPS-induced HepG2 cells [1]; [3]", "value": "dose-dependently restored"}, {"measurement": "TNF-α expression", "setting": "LPS-induced HepG2 cells [1]; [3]", "value": "suppressed"}, {"measurement": "MAO-B inhibition (in words)", "setting": "recombinant human MAO-B", "value": "potently inhibited"}, {"measurement": "LPS-elevated ALT level", "setting": "LPS-induced HepG2 cells [2]", "value": "significant suppression"}, {"measurement": "LPS-elevated AST level", "setting": "LPS-induced HepG2 cells [2]", "value": "significant suppression"}]}, {"smiles": "O=C(Oc1ccc2ccc(=O)oc2c1)C(O)c1ccccc1", "note": "(stereo not shown) [2-oxo-2H-chromen-7-yl 2-hydroxy-2-phenylacetate]", "values": [{"measurement": "selectivity index", "setting": "human MAO-B (hMAO-B); hMAO-B", "value": 8.55}, {"measurement": "IC50", "setting": "human MAO-B (hMAO-B)", "value": "10.32 ± 0.044", "unit": "µM"}]}, {"smiles": "O=Cc1cc2ccc(=O)oc2cc1O", "note": "[6-formyl umbelliferone]", "values": [{"measurement": "mode of hMAO inhibition", "setting": "hMAO", "value": "competitive"}, {"measurement": "isoform selectivity (in words)", "setting": "hMAO-A", "value": "selectivity for hMAO-A versus hMAO-B"}, {"measurement": "IC50", "setting": "hMAO-A", "value": 3.23, "unit": "µM"}, {"measurement": "IC50", "setting": "hMAO-B", "value": 15.3, "unit": "µM"}]}, {"smiles": "O=Cc1c(O)ccc2ccc(=O)oc12", "note": "[8-formyl umbelliferone]", "values": [{"measurement": "mode of hMAO inhibition", "setting": "hMAO", "value": "competitive"}, {"measurement": "isoform selectivity (in words)", "setting": "hMAO-A", "value": "selectivity for hMAO-A versus hMAO-B"}]}, {"smiles": "C#CCN(C)CCCOc1ccc(Cl)cc1Cl", "note": "[clorgyline]", "values": [{"measurement": "MAO inhibition", "setting": "MAO", "value": "> 99", "unit": "%"}]}, {"smiles": "O=c1ccc2cc(O)c(O)cc2o1", "note": "[esculetin]", "values": [{"measurement": "isoform selectivity (in words)", "setting": "hMAO-A", "value": "selectivity for hMAO-A versus hMAO-B"}]}, {"smiles": "Cn1c(-c2ccc3c(c2)OCO3)cc(=O)c2ccccc21", "note": "[graveoline]", "values": [{"measurement": "hepatoprotective effect", "setting": "liver injury", "value": "attenuates liver injury"}]}, {"smiles": "C=CC(C)(C)c1cc2cc3c(cc2oc1=O)OC(C(C)(C)OC(C)=O)C3", "note": "(stereo not shown) [rutamarin]", "values": [{"measurement": "inhibition of MAO-A", "setting": "MAO-A", "value": 25.15, "unit": "%"}, {"measurement": "inhibition rate of human MAO-B", "setting": "human MAO-B", "value": 95.26, "unit": "%"}]}, {"smiles": "COc1cc2ccc(=O)oc2cc1O", "note": "[scopoletin]", "values": [{"measurement": "isoform selectivity (in words)", "setting": "hMAO-A", "value": "selectivity for hMAO-A versus hMAO-B"}]}, {"smiles": "C#CCN(C)[C@H](C)Cc1ccccc1", "note": "[selegiline]", "values": [{"measurement": "MAO inhibition", "setting": "MAO", "value": "> 99", "unit": "%"}]}, {"smiles": "O=C(O)c1cc2ccc(=O)oc2cc1O", "note": "[umbelliferone-6-carboxylic acid]", "values": [{"measurement": "isoform selectivity (in words)", "setting": "hMAO-A", "value": "selectivity for hMAO-A versus hMAO-B"}]}, {"smiles": "O=c1ccc2ccc(O)cc2o1", "note": "[umbelliferone]", "values": [{"measurement": "isoform selectivity (in words)", "setting": "hMAO-A", "value": "selectivity for hMAO-A versus hMAO-B"}]}]}
